How the values were obtained:
NK cells [1] = assay: In vitro splenocyte stimulation: NK cell degranulation (CD107a); type: cell-based, mice; details: stimulation with anti-NK1.1 antibodies or PMA and ionomycine, data not shown
Procedure: Splenocytes from control and GR^Ncr1-iCre mice were stimulated in vitro in complete culture medium (RPMI 10% FCS, 100 μg/ml penicillin/streptomycin, 2 mM 1-glutamine, 1 mM sodium pyruvate, and 0.01 M Hepes) with: 25 ng/ml IL-12 (eBiosciences), 25 ng/ml IL-15 (Peprotech) and 20 ng/ml IL-18 (MBL) alone or in combination, or with PMA (200 ng/ml, Sigma) and ionomycin (1 μg/ml, Sigma). For NK1.1 stimulation 96 well plates (Immulon 2HB) were coated overnight at 37° C. with 2.5 ul/well anti-NK1.1 Ab (PK136, eBiosciences) or IgG2a isotype control before cell plating. During stimulation, 250 or 500 nM corticosterone (Sigma; dissolved in ethanol) or the same volume of vehicle alone were added to the medium. Cells were stimulated at 37° C. in the presence of Golgi Stop and Golgi Plug from BD Biosciences. After 4 h of stimulation, the cells were washed and stained for FACS analysis. […]
Single-cell suspensions were obtained from the spleen by scratching it through 70 um cell strainer, or from the liver by scratching it through 100 um cell strainer and subsequent lymphocyte isolation on a 37.5%-67.5% Percoll gradient. […] Stained samples were analyzed in a BD LSRII flow cytometer (BD Biosciences). Apoptosis was detected with the FITC Annexin V Apoptosis Detection Kit I from BD Biosciences, according to the manufacturer's protocol.

NK cells [2] = assay: In vitro splenocyte stimulation with cytokines: PD1 expression (FACS); type: cell-based, mice
Procedure: Splenocytes from control and GR^Ncr1-iCre mice were stimulated in vitro in complete culture medium (RPMI 10% FCS, 100 μg/ml penicillin/streptomycin, 2 mM 1-glutamine, 1 mM sodium pyruvate, and 0.01 M Hepes) with: 25 ng/ml IL-12 (eBiosciences), 25 ng/ml IL-15 (Peprotech) and 20 ng/ml IL-18 (MBL) alone or in combination, or with PMA (200 ng/ml, Sigma) and ionomycin (1 μg/ml, Sigma). For NK1.1 stimulation 96 well plates (Immulon 2HB) were coated overnight at 37° C. with 2.5 ul/well anti-NK1.1 Ab (PK136, eBiosciences) or IgG2a isotype control before cell plating. During stimulation, 250 or 500 nM corticosterone (Sigma; dissolved in ethanol) or the same volume of vehicle alone were added to the medium. Cells were stimulated at 37° C. in the presence of Golgi Stop and Golgi Plug from BD Biosciences. After 4 h of stimulation, the cells were washed and stained for FACS analysis. For CD107a staining, 2.5 ul/well of anti-CD107a-FITC antibody (1D4B, BD Biosciences) were added during stimulation.
Single-cell suspensions were obtained from the spleen by scratching it through 70 um cell strainer, or from the liver by scratching it through 100 um cell strainer and subsequent lymphocyte isolation on a 37.5%-67.5% Percoll gradient. For isolation of small intestine lamina propria cells, intestines were cut longitudinally, then transversally in 2-3 cm pieces, thoroughly rinsed with PBS, and shaken for 30 minutes in PBS containing 10% FBS, 15 mM Hepes and 5 mM EDTA to remove intraepithelial and epithelial cells. Intestines were then digested with collagenase VIII (300UI/mL; Sigma) in complete RPMI for 45 minutes at 37° C. under agitation, and lamina propria lymphocytes were isolated on a 40%-100% Percoll gradient. Cells were incubated with the Fc blocking antibody (2.4G2) and with a fixable blue dead-cell stain kit (Invitrogen). Surface molecules were stained with antibodies against: CD45.2 (104), CD3 (145-2C11), CD19 (1D3), NK1.1 (PK136), CD49a (Ha31/8), CD11b (M1/70), MHCII (M5/114.15.2), TCRb (H57-597), PD1 (J43, and Hamster IgG2 isotype control), PDL1 (MIHS) from BD Biosciences; NKp46 (29A1.4), CD49b (DX5), F4/80 (BM8), Ly49H (3D10) from eBioscience; CD11c (N418), PD1 (RMP1-30, and Rat IgG2b isotype control), PDL2 (TY25) and Ly6G (1A8) from Biolegend. For intracellular staining, cells were fixed and permeabilized with an intracellular staining kit (eBioscience), and the following antibodies were used: anti-IFN-(XMG1.2) from Biolegend; anti-granzyme B (GB11), anti-Rort (Q31-378), anti-IL17 (TC11-18H10), anti-Ki67 (B56) from BD Biosciences, anti-IL-22 (JOP eBioscience, coupled to Alexa Fluor 647 with an antibody labeling kit from Life Technologies), anti-GR XP rabbit mAb (D8H2) and rabbit mAb IgG XP (DA1E) from Cell Signaling Technology. Stained samples were analyzed in a BD LSRII flow cytometer (BD Biosciences). Apoptosis was detected with the FITC Annexin V Apoptosis Detection Kit I from BD Biosciences, according to the manufacturer's protocol.

C[C@]12C[C@H](O)[C@H]3[C@@H](CCC4=CC(=O)CC[C@@]43C)[C@@H]1CC[C@@H]2C(=O)CO [Corticosterone, (11β)-11,21-Dihydroxypregn-4-ene-3,20-dione]
ability of NK cells to degranulate (measured by their CD107a expression) (NK cells [1]): did not affect | PD1 expression on NK cells (NK cells [2]; corticosterone (250 or 500 nM) with the combination IL-15+IL-18, splenocytes, 4 h): able to induce PD1 expression on NK cells, in a dose-dependent manner | PD1 expression on NK cells (NK cells [2]; corticosterone alone, splenocytes, 4 h at 37° C.): not able to induce PD1 expression | PD1 induction on T cells (NK cells [2]; corticosterone in addition to IL-15 and IL-18): not observed | PD1 induction on NK cells from GR^Ncr1-iCre mice (NK cells [2]; corticosterone in addition to IL-15 and IL-18, GR-deficient NK cells): not observed | PD1 expression on NK cells (NK cells [2]; corticosterone in the presence of IL-15, splenocytes, 4 h): not able to induce PD1 expression | PD1 expression on NK cells (NK cells [2]; corticosterone with IL-15+IL-18 and addition of IL-12): abrogate this effect

From patent publication US20210024628A1, “METHODS FOR MODULATING INNATE LYMPHOID CELL ACTIVITY, ANTIBODY DRUG CONJUGATES AND USES IN THERAPY” (INSERM (INSTITUT NATIONAL DE LA SANTÉ ET DE LA RECHERCHE …, priority 2018, published 2021)
